Measured values: US9217157B2, “Recombinant influenza viruses and uses thereof” (Icahn School of Medicine at Mount Sinai, priority 2009, dated 2015)

Key:
NS1-GFP virus [1] = tested on: NS1-GFP virus; parameters: species or system influenza A virus; settings: in vivo
NS1-GFP virus [2] = format: in vivo, influenza A virus

NC12CC3CC(CC(C3)C1)C2 [amantadine]
effect on NS1-GFP infection in different cell types, in words (NS1-GFP virus [1]): most effective in blocking infection of NK and B cells, but was less potent for other cell types | prevention of infection in B and NK cells (NS1-GFP virus [1]): 3-4 fold | reduction in infection of CD11b+ CD11c+ cells (NS1-GFP virus [1]): 50% | reduction in infection of epithelial (CD45-) cells (NS1-GFP virus [1]): 50%

CCOC(=O)C1=C[C@@H](OC(CC)CC)[C@H](NC(C)=O)[C@@H](N)C1 [oseltamivir]
GFP fluorescence intensity of lungs lower than in untreated mice (NS1-GFP virus [2]; day 2 post-infection, 10^6 pfu, 50 mg/Kg once daily from day of infection): 3 to 5 fold | spread of GFP signal in lungs, in words (NS1-GFP virus [2]; day 4 post infection, treatment from day of infection): significantly restricted the spread of viral infection | GFP fluorescence signal in lungs vs no treatment, in words (NS1-GFP virus [2]; day 4 post infection, treatment started two days after infection (day+2)): no significant difference | effect on NS1-GFP infection in different cell types, in words (NS1-GFP virus [1]): dramatically reduced infection rate in all of the examined cell types | number of infiltrating cells (inflammatory monocytes and neutrophils), in words (NS1-GFP virus [1]): dramatically lower than in amantadine treated mice
